Test results: patent US9856218B2, “Inhibitors of PRMT5 and methods of their use” (Ohio State Innovation Foundation, priority 2013, dated 2018)
Read-outs that look alike come from different tables or passages of the source. Blank lines part the entries; values can stand above or below the compound they belong to.

Key:
multiple cell lines = assay: Proliferation of multiple cell lines (FIG. 59); type: cell-based; details: FIG. 59A-E
Procedure: Proliferation of multiple cell lines was evaluated for CMPD 5, CMPD 7, HLCL61, HLCL-65, and HLCL-66 (FIG. 59A-E).

JeKo cells = assay: Immunofluorescence staining of methylated H4(Me2)R3 / H3(Me2)R8; type: cell-based; details: FIG. 2F
Procedure: DAPI was used to stain nuclei.
Immunofluorescence assays for screening for presence of type II PRMT epigenetic marks (H4(SMe2)R3) compared to type I mark (H4(AMe2)R3). Cell lines were incubated for 24 hours with all the 14 compounds. After 24 hours, cells were fixed, blocked and treated with mAbs specific for symmetric dimethylation and asymmetric dimethylation of histone H4R3 respectively. Alexa Fluor 488 conjugated 2nd Ab was used for the staining of histone marks (green). Draq5 was used to stain nuclei (blue).

[1] = system: PRMT5 expression and phosphorylation levels in AML cells; assay: PRMT5 expression and phosphorylation after FLT3 inhibition; type: cell-based; details: FIG. 38C
Procedure: Whole cell lysates were prepared by suspending cell pellets in RIPA buffer for 20 min (1% NP-40, 0.1% SDS, 150 mM NaCl, 50 mM Tris, pH 8.0), then supplemented with 1× complete EDTA free protease inhibitor (Roche) and 1× PhosStop (Roche). Lysates were separated by 4-20% SDS-PAGE and transferred to PVDF membrane (GE Healthcare, Piscataway, N.J.). Membranes were blocked with 5% milk or BSA in 1×TBS with 0.1% Tween 20 for 1 hour at room temperature with shaking. Primary antibodies for ACTIN, GAPDH and FLT3 (Santa Cruz Biotechnology, Santa Cruz Calif.), P65 (Cell signaling), PRMT5 and SP1 (Millipore), H4R3, H3R8, H3 and H4 (Abcam), were diluted 1:1000 or 1:2000 in 5% milk or BSA and incubated for 1-2 hr at room temperature. Membranes were washed using 1×TBS-T, incubated with HRP-conjugated secondary antibodies diluted in 1×TBS-T with 5% milk or BSA, washed, and developed using SuperSignal West Dura Chemiluminescent Substrate (Thermo Scientific).

[2] = biological target: T1, recombinant human PRMT5/MEP50 enzyme (Homo sapiens, UniProt O14744); assay: Epigenase PRMT methyltransferase (type II-specific) activity/inhibition assay kit; type: biochemical; details: 25 ng recombinant human PRMT5/MEP50 per reaction; read-out: Inhibition of PRMT5 mediated H4R3 methylation (IC50)
T1 construct: purchased BPS Bioscience
T1 sequence (O14744 2-637 limits assumed): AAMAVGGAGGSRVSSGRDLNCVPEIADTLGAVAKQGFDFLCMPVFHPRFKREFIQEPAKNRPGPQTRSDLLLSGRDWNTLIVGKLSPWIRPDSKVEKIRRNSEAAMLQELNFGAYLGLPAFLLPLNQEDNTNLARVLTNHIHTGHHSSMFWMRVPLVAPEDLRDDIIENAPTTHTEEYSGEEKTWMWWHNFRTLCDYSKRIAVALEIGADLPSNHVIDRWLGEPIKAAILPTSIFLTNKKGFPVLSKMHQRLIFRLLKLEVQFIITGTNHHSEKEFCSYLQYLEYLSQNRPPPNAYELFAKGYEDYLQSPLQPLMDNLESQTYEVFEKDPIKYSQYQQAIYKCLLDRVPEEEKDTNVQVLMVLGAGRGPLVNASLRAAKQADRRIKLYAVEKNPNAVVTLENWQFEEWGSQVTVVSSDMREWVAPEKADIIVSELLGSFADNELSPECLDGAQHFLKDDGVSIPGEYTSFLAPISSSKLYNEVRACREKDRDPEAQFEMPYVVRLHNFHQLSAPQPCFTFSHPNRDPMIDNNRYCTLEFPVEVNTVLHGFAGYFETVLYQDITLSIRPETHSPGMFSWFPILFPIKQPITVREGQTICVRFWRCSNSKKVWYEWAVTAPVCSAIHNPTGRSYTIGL
T1 sequence (Q9BQA1 2-342 partner limits assumed): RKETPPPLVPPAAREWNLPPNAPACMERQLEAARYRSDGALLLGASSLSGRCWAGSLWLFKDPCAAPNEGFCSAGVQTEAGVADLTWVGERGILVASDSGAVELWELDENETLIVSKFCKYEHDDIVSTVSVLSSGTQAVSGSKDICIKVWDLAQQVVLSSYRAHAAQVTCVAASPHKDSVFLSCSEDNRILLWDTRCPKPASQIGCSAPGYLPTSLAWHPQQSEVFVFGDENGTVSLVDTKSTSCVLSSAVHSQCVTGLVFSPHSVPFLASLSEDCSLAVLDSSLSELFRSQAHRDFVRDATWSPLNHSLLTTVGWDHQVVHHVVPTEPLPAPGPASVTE
Procedure: The inhibition of PRMT5 mediated H4R3 methylation result was obtained with Epigenase™ PRMT methyltransferase (type II-specific) activity/inhibition assay kit. 25 ng recombinant human PRMT5/MEP50 enzyme (purchased from BPS Bioscience) was used in each reaction.

[3] = system: Mantle cell lymphoma cell line Jeko; assay: MTS anti-proliferation assay; type: cell-based
Procedure: MTS proliferation assays were performed according the CellTiter 96™ Aqueous Cell Proliferation Assay Technical Bulletin (Promega, Madison, Wis.). 5×10^5 cells were plated in each well of a 96-well plate at 37° C. and assayed for proliferation at 24, 48, and 72 hr. Proliferation signal at 50% of control was used as IC50 for growth.
(§1) Following the synthesis of 14 compounds, the anti-proliferation and pro-apoptotic activities of those compounds was evaluated in Mantle cell lymphoma cell line Jeko. Replicate cultures of Jeko were incubated in DMSO and the compounds for 24, 48 and 72 hours. FITC-Annexin V-PI stained flow cytometry was used to detect the apoptotic population of cells (Table 4).

[4] = system: Mantle cell lymphoma cell line Jeko; assay: Induction of apoptosis, FITC-Annexin V-PI flow cytometry; type: cell-based
Procedure: Analysis by flow cytometry. Cell viability was also measured by flow cytometry at 24 and 48 hr using annexin-V-FITC and propidium iodide (PI) according to the manufacturer's instructions (BD Biosciences).
as §1

recombinant PRMT1 = biological target: T2, recombinant PRMT1 (Rattus norvegicus, UniProt Q63009); assay: Histone methyltransferase assay, [3H]SAM; type: biochemical
T2 construct: purchased Millipore 14-474
T2 sequence (Q63009 whole entry): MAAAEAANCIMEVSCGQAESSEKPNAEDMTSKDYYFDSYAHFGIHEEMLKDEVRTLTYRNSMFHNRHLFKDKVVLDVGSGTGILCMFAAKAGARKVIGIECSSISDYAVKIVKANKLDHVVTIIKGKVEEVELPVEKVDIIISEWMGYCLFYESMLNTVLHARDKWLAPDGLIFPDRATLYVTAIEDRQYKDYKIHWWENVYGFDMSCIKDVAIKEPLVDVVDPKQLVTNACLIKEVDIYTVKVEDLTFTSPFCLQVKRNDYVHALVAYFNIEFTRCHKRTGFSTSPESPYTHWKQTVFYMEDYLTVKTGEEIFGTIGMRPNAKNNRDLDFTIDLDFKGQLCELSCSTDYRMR
Procedure: (§2) Histone methylation was performed in the presence of DMSO, and 1-40 μM inhibitor compounds. […] After 1.5 h incubation at 30° C., reaction mixtures were spotted on Whatman P-81 filter paper, washed five times with 10 mL of […] sodium carbonate buffer (pH 9.0) to remove unincorporated [3H]SAM, and methylated peptides were detected by scintillation counting.
as §2, with “HLCL-32, HLCL-10, HLCL-61 and HLCL-64.” for “inhibitor compounds.”, “After a” for “After”, “C.” for “C.,”, “[^3H]SAM,” for “[3H]SAM,”

[5] = biological target: T3, affinity-purified hSWI/SNF associated PRMT5 (Homo sapiens, UniProt O14744); assay: Histone methyltransferase assay, [3H]SAM; type: biochemical; details: for inhibition of PRMT5 enzyme: 10 μM, FIG. 17B; for IC50: FIG. 16, 1-40 μM compound, HeLa S3 core histones, read-out: PRMT5 methylation activity IC50
T3 construct: made in house
T3 sequence (O14744 whole entry): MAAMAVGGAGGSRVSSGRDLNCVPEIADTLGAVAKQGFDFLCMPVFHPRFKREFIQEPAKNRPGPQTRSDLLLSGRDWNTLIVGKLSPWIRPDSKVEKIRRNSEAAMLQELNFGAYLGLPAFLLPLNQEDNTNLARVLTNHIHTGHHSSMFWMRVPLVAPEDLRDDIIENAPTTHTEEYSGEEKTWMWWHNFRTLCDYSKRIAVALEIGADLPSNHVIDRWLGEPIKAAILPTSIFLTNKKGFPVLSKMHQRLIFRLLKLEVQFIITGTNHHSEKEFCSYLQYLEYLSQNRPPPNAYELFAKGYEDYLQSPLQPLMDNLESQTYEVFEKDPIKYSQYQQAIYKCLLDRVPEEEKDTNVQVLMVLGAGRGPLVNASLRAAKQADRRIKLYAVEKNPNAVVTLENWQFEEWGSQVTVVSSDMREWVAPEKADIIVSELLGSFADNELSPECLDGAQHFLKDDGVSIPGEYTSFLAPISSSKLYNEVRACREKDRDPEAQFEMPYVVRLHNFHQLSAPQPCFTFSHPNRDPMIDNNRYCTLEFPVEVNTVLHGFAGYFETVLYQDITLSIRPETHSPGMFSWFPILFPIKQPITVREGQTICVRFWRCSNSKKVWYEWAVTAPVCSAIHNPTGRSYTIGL
T3 sequence (Q9BQA1 whole entry partner): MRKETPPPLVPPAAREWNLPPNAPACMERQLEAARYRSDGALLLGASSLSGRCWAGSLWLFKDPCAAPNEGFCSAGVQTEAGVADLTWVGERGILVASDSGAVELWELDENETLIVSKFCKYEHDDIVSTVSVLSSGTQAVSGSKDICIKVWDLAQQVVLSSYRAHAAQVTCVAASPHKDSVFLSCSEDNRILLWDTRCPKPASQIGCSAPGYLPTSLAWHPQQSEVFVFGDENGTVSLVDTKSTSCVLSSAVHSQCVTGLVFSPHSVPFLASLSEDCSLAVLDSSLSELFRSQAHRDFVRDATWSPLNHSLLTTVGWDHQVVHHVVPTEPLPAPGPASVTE
Procedure: as §2
Type II PRMT enzymes repress gene transcription and symmetrically dimethylate H3R8 and H4R3, while type I PRMT enzymes activate gene transcription and asymmetrically dimethylate H4R3. Purified PRMT5, PRMT1, PRMT4 and PRMT7 were obtained to perform the assay.
as §2, with “HLCL-32, HLCL-10, HLCL-61 and HLCL-64.” for “inhibitor compounds.”, “After a” for “After”, “C.” for “C.,”, “[^3H]SAM,” for “[3H]SAM,”

[6] = 24 hr Quick MTD test, one mouse for each dose; type: in vivo; details: one mouse
Procedure: (§3) Controlled shRNA depletion was evaluated in a murine lymphoma model (Eμ-BRD2 (Chung, J., et al. (2013) J. Biological Chemistry 288, 35534-35547)) and human xenograft model of glioblastoma (Yan, F., et al (2014) Cancer Research In Press). Referring to FIG. 62A, controlled expression of a PRMT5 shRNA (solid line) but not control shRNA (dashed line) leads to 100% survival of mice engrafted primary DLBCL tumor cells. […] The maximum tolerated dose (MTD, single dose) was identified at 50 mg/kg (see Table 11 below). A sub-toxic dose (25 mg/kg) was used to treat FcMCL mice. Control mice developed peripheral blood and lymph node tumor burden starting day 20 post-engraftment.

[7] = MTD study, four mice each dose; type: in vivo
Procedure: as §3

FcMCL mice = assay: FcMCL mantle cell lymphoma mouse model; type: in vivo; details: 25 mg/kg, IP, every other day
Procedure: as §3

[8] = In vivo pharmacokinetics, plasma concentration; design: species or system Mouse; details: for concentration at 0.08 h / concentration at 0.17 h / concentration at 0.33 h / concentration at 0.5 h / concentration at 1 h / concentration at 2 h / concentration at 4 h / concentration at 6 h / concentration at 8 h / concentration at 24 h: mouse, in vivo, read-out: Mouse plasma concentration; for concentration at 0.5 h: 0.50 h
Description: Pharmacokinetic data of compounds HLCL-7, HLCL-61, and HLCL-66 taken from an in vivo study is illustrated in Table 10. […]

[9] = incubation time not given (24, 48, 72 h tested)
[10] = IV 5 mg/kg, Tween80 formulation

Structure (SMILES): CCn1c2ccccc2c2cc(CNCc3ccccn3)ccc21 [CMP5, reference compound]
potency, proliferation of multiple cell lines (multiple cell lines): low micromolar range
PRMT5 driven epigenetic marks (symmetrically methylated H4(Me2)R3, H3(Me2)R8) (JeKo cells): interferes with PRMT5 driven epigenetic marks

Structure (SMILES): COc1ccc(C(=O)Nc2sc3c(c2C(N)=O)CCCC3)cc1OC [FLT3 inhibitor (CALBIOCHEM #343020)]
PRMT5 expression and phosphorylation levels [1]: did not change

IC50 [2]: > 50 µM
IC50 [3, 9]: > 50 µM
Structure (SMILES): CS(=O)(=O)c1ccc(Cn2c3ccccc3c3ccccc32)cc1 [HLCL-1]

IC50 [2]: > 50 µM
IC50 [3, 9]: > 50 µM
Structure (SMILES): CCn1c2ccccc2c2cc(NC(=S)Nc3ccc(S(C)(=O)=O)cc3)ccc21 [HLCL-6]

IC50 [2]: > 50 µM
IC50 [3, 9]: > 50 µM
Structure (SMILES): CCn1c2ccccc2c2cc(CNc3ccc(S(C)(=O)=O)cc3)ccc21 [HLCL-9]

EC50 ([4]; 24 h): 40 µM
EC50 ([4]; 48 h): 35 µM
inhibition of PRMT1 enzyme (recombinant PRMT1; 10 μM, FIG. 17B): this non-specific activity is lost
inhibition of PRMT1 enzyme (recombinant PRMT1; 20 μM and above, FIG. 17A): non-specific inhibition
IC50 [2]: > 50 µM
IC50 [5]: ~5 µM
IC50 ([3]; 24 h incubation): 84 µM
IC50 ([3]; 48 h incubation): 47 µM
IC50 ([3]; 72 h incubation): 60 µM
Structure (SMILES): CCn1c2ccccc2c2cc(CNCc3ccc(S(C)(=O)=O)cc3)ccc21 [HLCL-10]
inhibition of PRMT5 enzyme [5]: the only enzyme that is affected is PRMT5

IC50 [2]: > 50 µM
IC50 [3, 9]: > 50 µM
Structure (SMILES): CCn1c2ccccc2c2cc(/C=N/Nc3ccc(S(C)(=O)=O)cc3)ccc21 [HLCL-12]

IC50 [2]: > 50 µM
IC50 [3, 9]: > 50 µM
Structure (SMILES): CS(=O)(=O)c1ccc(C(O)C(O)Cn2c3ccccc3c3ccccc32)cc1 (centres unmarked) [HLCL-17&20]

IC50 [2]: > 50 µM
IC50 [3, 9]: > 50 µM
Structure (SMILES): CS(=O)(=O)c1ccc(NCCn2c3ccccc3c3ccccc32)cc1 [HLCL-23]

EC50 ([4]; 24 h): 30 µM
EC50 ([4]; 48 h): 20 µM
inhibition of PRMT1 enzyme (recombinant PRMT1; 10 μM, FIG. 17B): this non-specific activity is lost
inhibition of PRMT1 enzyme (recombinant PRMT1; 20 μM and above, FIG. 17A): non-specific inhibition
IC50 [2]: > 50 µM
IC50 [5]: ~5 µM
IC50 ([3]; 24 h incubation): 51 µM
IC50 ([3]; 48 h incubation): 29 µM
IC50 ([3]; 72 h incubation): 29 µM
Structure (SMILES): CCn1c2ccccc2c2cc(CNc3ccc(S(N)(=O)=O)cc3)ccc21 [HLCL-32]
inhibition of PRMT5 enzyme [5]: the only enzyme that is affected is PRMT5

IC50 [2]: > 50 µM
IC50 [3, 9]: > 50 µM
Structure (SMILES): CS(=O)(=O)c1ccc(/C=C/Cn2c3ccccc3c3ccccc32)cc1 [HLCL-63]

inhibition of PRMT1 enzyme (recombinant PRMT1; 10 μM, FIG. 17B): this non-specific activity is lost
inhibition of PRMT1 enzyme (recombinant PRMT1; 20 μM and above, FIG. 17A): non-specific inhibition
IC50 [2]: > 50 µM
IC50 [5]: ~5 µM
IC50 [3, 9]: > 50 µM
Structure (SMILES): CS(=O)(=O)c1ccc(/C=C\Cn2c3ccccc3c3ccccc32)cc1 [HLCL-64]
inhibition of PRMT5 enzyme [5]: the only enzyme that is affected is PRMT5

Structure (SMILES): CCn1c2ccc(Br)cc2c2cc(CNCc3ccccc3OC)ccc21 [HLCL-65]
EC50 ([4]; 24 h): 4 µM
EC50 ([4]; 48 h): 5 µM
survival after dosing ([6]; IP-50 mg/kg): Alive 24 hr after
clinical signs after dosing ([6]; IP-100 mg/kg, after 24 hr): paralyzed
clinical signs after dosing ([6]; IP-200 mg/kg): Paralyzed after dosing,
survival after dosing ([6]; IP-200 mg/kg): dead within 1 hr
survival after dosing ([6]; IV-2.5 mg/kg): Dead instantly after
survival after dosing ([6]; IV-5 mg/kg): Alive 24 hr after
survival after dosing ([6]; IV-10 mg/kg): Dead instantly after
survival after dosing ([6]; IV-20 mg/kg): Dead instantly after
survival 24 hr after dosing ([7]; IP-5 mg/kg, four mice): Alive 24 hr after
condition within 1 hr after dosing (alive but slow moving) ([7]; IP-50 mg/kg, four mice): Alive within 1 hr after
survival 24 hr after dosing ([7]; IP-50 mg/kg, four mice): moving. Alive 24 hr
MTD at 24 h ([7]; mouse, in vivo, single dose, mice, read-out: maximum tolerated dose (MTD, single dose)): 50 mg/kg
potency, proliferation of multiple cell lines (multiple cell lines): low micromolar range
IC50 [2]: 30 µM
tumor burden in FcMCL mice (FcMCL mice; lymph node versus peripheral blood): controlling development of lymph node tumor burden but not peripheral blood FcMCL tumor burden
survival of FcMCL mice (FcMCL mice; preliminary experiment): improved survival
IC50 ([3]; 24 h incubation): 9 µM
IC50 ([3]; 48 h incubation): 8 µM
IC50 ([3]; 72 h incubation): 6 µM
peak plasma concentrations ([8]; IV and IP routes at a dose of 25 mg/kg, FIG. 62B): 8 to 20 µM
concentration at 0.08 h ([8]; IP 25 mg/kg, DMSO solution): 6240 nM
concentration at 0.17 h ([8]; IP 25 mg/kg, DMSO solution): 6270 nM
concentration at 0.33 h ([8]; IP 25 mg/kg, DMSO solution): 5280 nM
concentration at 0.5 h ([8]; IP 25 mg/kg, DMSO solution): 1660 nM
concentration at 1 h ([8]; IP 25 mg/kg, DMSO solution): 1590 nM
concentration at 2 h ([8]; IP 25 mg/kg, DMSO solution): 8450 nM
concentration at 4 h ([8]; IP 25 mg/kg, DMSO solution): 4510 nM
concentration at 6 h ([8]; IP 25 mg/kg, DMSO solution): 5480 nM
concentration at 8 h ([8]; IP 25 mg/kg, DMSO solution): 3710 nM
concentration at 24 h ([8]; IP 25 mg/kg, DMSO solution): 480 nM
concentration at 0.08 h [8, 10]: 2940 nM
concentration at 0.17 h [8, 10]: 2050 nM
concentration at 0.33 h [8, 10]: 2940 nM
concentration at 0.5 h [8, 10]: 2390 nM
concentration at 1 h [8, 10]: 1890 nM
concentration at 2 h [8, 10]: 1930 nM
concentration at 4 h [8, 10]: 1530 nM
concentration at 6 h [8, 10]: 720 nM
concentration at 8 h [8, 10]: 513 nM
concentration at 24 h [8, 10]: 29.6 nM

Structure (SMILES): CO[C@@H]1[C@H](N(C)C(=O)c2ccccc2)C[C@H]2O[C@]1(C)n1c3ccccc3c3c4c(c5c6ccccc6n2c5c31)C(=O)NC4 [PKC412]
PRMT5 expression and phosphorylation levels [1]: did not change
